Results from ChEMBL document CHEMBL6096696, “Structure-Activity Relationship Studies of an Autophagy Inhibitor That Targets the ATG14L-Beclin1 Protein-Protein Interaction Reveal Modifications That Improve Potency and Solubility and Maintain Selectivity” (J Med Chem, 2025).
Converted amounts (≈) assume the structure as drawn. The source made the active and inactive calls. The calls are words filed in the database; no cut-off is given here.

Assays:
[1] = Selectivity ratio of inhibition of C-terminal Nano-luc tagged UVRAG/C-terminal Halo-tagged Beclin 1 (unknown origin) PPI tranfected with HEK293T cells to inhibition of C-terminal Nano-luc tagged ATG14L/C-terminal Halo-tagged Beclin 1 (unknown origin) PPI tranfected with HEK293T cells
A549 [2] = assay: Inhibition of autophagy in human A549 cells assessed as increase in fluorescence at 100 uM preincubated with DQ-BSA for 1 hr followed by compound addition and measured after 4 hrs by Hoechst 33342 staining based automated fluorescence microscopy analysis; type: functional, cell-based
HeLa [3] = assay: Cytotoxicity against human HeLa cells expressing eGFP-LC3 at 100 uM; type: functional, cell-based
[4] = Inhibition of C-terminal Nano-luc tagged ATG14L/C-terminal Halo-tagged Beclin 1 (unknown origin) PPI tranfected with HEK293T cells using […] incubated for 24 hrs by […] assay; type: cell-based, Homo sapiens
HEK293T [5] = assay: Inhibition of C-terminal Nano-luc tagged UVRAG/C-terminal Halo-tagged Beclin 1 (unknown origin) PPI tranfected with HEK293T cells using […] at 100 uM incubated for 24 hrs by […] assay relative to control; type: cell-based; conditions: Homo sapiens, values are per cent of control
HEK293T [6] = assay: Inhibition of C-terminal Nano-luc tagged ATG14L/C-terminal Halo-tagged Beclin 1 (unknown origin) PPI tranfected with HEK293T cells using […] at 100 uM incubated for 24 hrs by […] assay relative to control; type: cell-based; conditions: Homo sapiens, values are per cent of control
[7] = Kinetic aqueous solubility of compound in PBS at pH 7.4 by absorbance based analysis; type: physicochemical; conditions: read-out: Kinetic_solubility
A549 [8] = assay: Inhibition of autophagy in human A549 cells assessed as increase in fluorescence at 12.5 uM preincubated with DQ-BSA for 1 hr followed by compound addition and measured after 4 hrs by Hoechst 33342 staining based automated fluorescence microscopy analysis; type: functional, cell-based
HeLa [9] = assay: Inhibition of autophagy in human HeLa cells expressing eGFP-LC3 at 50 uM preincubated for 20 hrs followed by chloroquine addition and measured after 4 hrs by Hoechst 33342 staining based automated fluorescence microscopy analysis; type: functional, cell-based; conditions: time 24.0 hrs
A549 [10] = assay: Inhibition of autophagy in human A549 cells assessed as increase in fluorescence at 20 uM preincubated with DQ-BSA for 1 hr followed by compound addition and measured after 4 hrs by Hoechst 33342 staining based automated fluorescence microscopy analysis; type: functional, cell-based
[11] = Inhibition of C-terminal Nano-luc tagged UVRAG/C-terminal Halo-tagged Beclin 1 (unknown origin) PPI tranfected with HEK293T cells using […] incubated for 24 hrs by […] assay; type: cell-based, Homo sapiens
[12] = target: Beclin 1-associated autophagy-related key regulator (Homo sapiens) (UniProt Q6ZNE5); assay: Induction of stabilization of ATG14L in human A549 cells assessed as increase in melting temperature at 100 uM incubated for 24 hrs by CETSA method; type: cell-based
Beclin 1-associated autophagy-related key regulator (Homo sapiens), sequence (Q6ZNE5 whole entry): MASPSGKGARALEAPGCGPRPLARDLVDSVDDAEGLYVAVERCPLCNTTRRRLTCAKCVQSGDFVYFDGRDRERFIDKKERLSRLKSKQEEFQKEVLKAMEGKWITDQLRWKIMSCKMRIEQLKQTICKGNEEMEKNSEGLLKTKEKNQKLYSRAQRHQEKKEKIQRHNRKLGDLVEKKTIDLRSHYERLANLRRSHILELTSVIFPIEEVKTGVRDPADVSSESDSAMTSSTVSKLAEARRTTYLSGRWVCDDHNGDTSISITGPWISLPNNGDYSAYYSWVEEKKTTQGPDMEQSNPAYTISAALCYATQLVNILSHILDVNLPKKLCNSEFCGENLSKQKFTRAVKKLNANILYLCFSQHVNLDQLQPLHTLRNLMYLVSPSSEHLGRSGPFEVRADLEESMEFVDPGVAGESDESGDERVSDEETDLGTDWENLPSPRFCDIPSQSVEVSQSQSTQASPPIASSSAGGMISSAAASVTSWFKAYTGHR

HeLa [13] = assay: Inhibition of autophagy in human HeLa cells expressing eGFP-LC3 assessed as increase in LC3-II at 100 uM preincubated for 20 hrs followed by chloroquine addition and measured after 4 hrs by Hoechst 33342 staining based automated fluorescence microscopy analysis; type: functional, cell-based; conditions: time 24.0 hrs
A549 [14] = assay: Inhibition of autophagy in human A549 cells assessed as increase in fluorescence at 100 nM preincubated with DQ-BSA for 1 hr followed by compound addition and measured after 4 hrs by Hoechst 33342 staining based automated fluorescence microscopy analysis; type: functional, cell-based
HeLa [15] = assay: Inhibition of autophagy in human HeLa cells expressing eGFP-LC3 assessed as decrease in GFP puncta/cell at 100 uM preincubated for 20 hrs followed by chloroquine addition and measured after 4 hrs by Hoechst 33342 staining based automated fluorescence microscopy analysis; type: functional; conditions: time 24.0 hrs
A549 [16] = assay: Inhibition of autophagy in human A549 cells assessed as increase in fluorescence at 100 uM measured after 4 hrs by Hoechst 33342 staining based […] microscopy analysis; type: functional, cell-based

SMILES	Selectivity ratio [1]	Activity (HeLa [3])	IC50 [4] [µM]	residual binding, % of control (HEK293T [5]) [%]	residual binding, % of control (HEK293T [6]) [%]	solubility kinetic [7] [µM]	other results
CCCN1C(=O)COc2ccc(-c3ccc(Cl)cc3Cl)cc21	1.25	Active	28.8	82.6	65.8	> 100	inhibition (A549 [2]): Active
CCCN1C(=O)COc2ccc(-c3ccccc3)cc21	1.51	Active	56.6	95.7	63.2	> 100	inhibition (A549 [2]): Active
CCCN1C(=O)COc2ccc(-c3cccc(C)c3)cc21	1.59	Active	42	91.5	57.3	> 100	inhibition (A549 [2]): Active
Nc1ncc(-c2ccnc(Nc3ccncc3)n2)c(CC2CC2)n1	–	–	–	–	–	–	inhibition (A549 [8]): inactive
C[C@@H]1COCCN1c1cc(=O)n2c(n1)N(Cc1cncc(Cl)c1)[C@H](C(F)(F)F)CC2	–	–	–	–	–	–	inhibition (A549 [8]): inactive
O=C1COc2ccc(-c3cccc(Cl)c3)cc2N1Cc1noc(C2CCC2)n1	1.32	Active	–	116	85.1	> 100	inhibition (HeLa [9]): inactive
Cc1cccc(-c2ccc3c(c2)N(Cc2noc(C4CCC4)n2)C(=O)CO3)c1C	1.3	Active; Compound Showed Less Cytotoxicity	12.5	95.3	73.1	> 100	inhibition (HeLa [9]): Active
O=C1COc2ccc(-c3ccccc3Cl)cc2N1Cc1noc(C2CCC2)n1	1.17	Active; Compound Showed Less Cytotoxicity	–	106	89.9	> 100	–
CCCN1C(=O)COc2ccc(-c3cccc(OC(F)(F)F)c3)cc21	1.22	Active	24.3	92.4	75.3	> 100	inhibition (A549 [2]): Active
O=C1COc2ccc(-c3ccccc3C(F)(F)F)cc2N1Cc1noc(C2CCC2)n1	1.27	Active; Compound Showed Less Cytotoxicity	–	98	77.4	> 100	–
CC(C)c1ccccc1-c1ccc2c(c1)N(Cc1noc(C3CCC3)n1)C(=O)CO2	1.29	Active; Compound Showed Less Cytotoxicity	–	92.9	71.6	> 100	–
Cc1cccc(NS(=O)(=O)c2ccc3c(c2)N(Cc2noc(C4CCC4)n2)C(=O)CO3)c1C	–	–	33.9	–	60.6	50 (≈ 23.4 µg/mL)	–
O=C1COc2ccc(-c3ccc(Cl)cc3Cl)cc2N1Cc1noc(C2CCC2)n1	1.17	Active	–	105	89.7	> 100	inhibition (HeLa [9]): inactive
CCCN1C(=O)COc2ccc(-c3ccc(F)cc3F)cc21	1.32	Active	–	84.2	63.8	> 100	–
CCCN1C(=O)COc2ccc(-c3ccncc3)cc21	1.03	Active	–	108	106	> 100	–
CCN(CC)CCCC(C)Nc1ccnc2cc(Cl)ccc12 (stereo not given)	–	–	–	–	–	–	inhibition (A549 [10]): inactive
CCCN1C(=O)COc2ccc(-c3ccccc3O)cc21	1.26	Active	–	104	82.5	> 100	–
Cc1cccc(-c2ccc3c(c2)N(Cc2noc(C4CCC4)n2)C(=O)CO3)c1Cl	1.45	Active; Compound Showed Less Cytotoxicity	–	117	80.5	> 100	–
Cc1c(Cl)cccc1-c1ccc2c(c1)N(Cc1noc(C3CCC3)n1)C(=O)CO2	1.5	Active; Compound Showed Less Cytotoxicity	–	120	79.7	> 100	–
CCCN1C(=O)COc2ccc(-c3cccc(C)c3C)cc21	1.23	Active	32.3	77.7	63	> 100	inhibition (A549 [2]): Active; IC50 [11]: 42.2 µM
CCN1C(=O)COc2ccc(S(=O)(=O)Nc3cccc(C)c3C)cc21	–	–	–	–	95.9	> 100	Activity [12]: inactive; inhibition (HeLa [13]): Active
CCCN1C(=O)COc2ccc(-c3ccccc3C)cc21	1.3	Active	42.4	84.6	65	> 100	inhibition (A549 [2]): Active
CO/C1=C\C(C)=C\[C@@H](C)[C@@H](O)[C@@H](C)C/C(C)=C/C=C/[C@H](OC)[C@@H]([C@@H](C)[C@@H](O)[C@H](C)[C@@]2(O)C[C@@H](O)[C@H](C)[C@@H](C(C)C)O2)OC1=O	–	–	–	–	–	–	inhibition (A549 [14]): inactive
O=C1COc2ccc(-c3cccc(Cl)c3Cl)cc2N1Cc1noc(C2CCC2)n1	1.17	Active; Compound Showed Less Cytotoxicity	–	101	86.8	> 100	–
CCCN1C(=O)COc2ccc(-c3ccccc3OC)cc21	1.26	Active	–	100	79.5	> 100	–
Cc1c(Cl)cccc1Nc1ccc2c(c1)N(Cc1noc(C3CCC3)n1)C(=O)CO2	1.4	–	–	118	83.9	100 (≈ 42.5 µg/mL)	–
CCCN1C(=O)COc2ccc(S(=O)(=O)Nc3cccc(C)c3C)cc21	–	–	56.3	–	72.3	> 100	inhibition (HeLa [15]): Active; Compared With Chloroquine And Compound 1E; Activity [12]: Active; inhibition (A549 [16]): Active; inhibition (A549 [2]): Active; Compound Showed Normal Functioning Of Lysosomes And Endosomal Trafficking; inhibition (HeLa [13]): Active
